In patent US4594340A, “25,26-dehydro-1α,24R-dihydroxycholecalciferol and 25,26-dehydro-1α,24S-dihydroxycholecalciferol and the epimeric mixture” (Hoffmann-La Roche Inc., priority 1984, dated 1986):
Read-outs that look alike come from different tables or passages of the source.

Key:
[1] = Antirachitogenic increase in tibia ash in chicks on vitamin D-deficient diet; format: in vivo, chick (White Leghorn cockerels)
Description: **Oneday-old White Leghorn cockerels were placed on a vitamin Ddeficient
diet which contained 1% calcium and 0.7% phosphorus and were housed under
ultravioletfree lighting (General Electric F40G0 gold fluorescent lights)
The test compound was dissolved in propylene glycol and administered
orally in a volume of 0.2 ml/day for 21 consecutive days. Controls were
treated with vehicle alone. Chicks were autopsied on the day after the […]

[2] = test system: HL-60 cells; assay: Differentiation of HL-60 cells by nitroblue tetrazolium (NBT) reduction; format: cell-based, human (patient)
Description: (§1) Cultures of HL-60 cells were established in the absence (control) or presence of various concentrations of the test compound. […] Proliferation was assessed by directly enumerating the increased number of tumor cells resulting from incubation. Viability was determined by dye exclusion technique to learn whether any of the compounds were lethal to cultured HL-60 cells. Cellular differentiation was evaluated by determining the number of cells which had acquired the enzymes necessary to support a respiratory burst and the functional ability to phagocytose (bind/internalize) particulate material from their environment; both activities being characteristic of mature macrophages and granulocytes,
(§2) Experimental compounds were dissolved in sufficient ethanol to yield stock solutions of 1×10^-2 molar. Reduced lighting was employed when working with compounds and stock solutions were stored in the dark at -20° in an argon atmosphere. Compounds were diluted with tissue culture medium and added to flasks containing HL-60 cells to achieve the final concentrations described in each experiment.
(§3) The promyelocytic (HL-60) tumor cell line was derived from a patient with acute promyelocytic leukemia. HL-60 cells were maintained in liquid culture by serial weekly passage in tissue culture medium. In any experiment, three replicate flasks were incubated without compound (control) or in the presence of varying concentrations of compound. […]
Quantitation of differentiated cells was done by the biochemical method of nitroblue tetrazolium (NBT) reduction. Sufficient cells were pooled from replicate cultures, centrifuged at 220×g, washed once with serum-free tissue culture medium, and resuspended to 1×10^6 cells per ml in Ca^++ --Mg^++ -deficient phosphate buffered saline (prepared by supplementing Ca^++ --Mg^++ -free phosphate buffered saline (PBS) to 10% v/v with heat-inactivated fetal bovine serum). Nitroblue tetrazolium was dissolved at 1 mg per ml in Ca^++ --Mg^++ -deficient PBS with gentle heating and mixing. Tetradecanoyl phorbol acetate (TPA) was dissolved at 1 mg per ml in ethanol and stored at -20° C. Just prior to use, a working solution of TPA was prepared by diluting the stock concentration 100-fold with Ca^++ --Mg^++ -deficient PBS. The test was done in 12×75 mm tubes by adding 0.5 ml Ca^++ --Mg^++ -deficient PBS, 1.0 ml of HL-60 cells, 0.5 ml of NBT solution, and 0.02 ml of the working TPA solution. After mixing, the tubes were incubated in a 37° water bath for 25 minutes then transferred to ice. Undifferentiated and differentiated cells present in any sample were determined microscopically by surveying 200-400 cells per sample or by cytofluorograph by surveying greater than 30,000 cells. Cells without pigmented granules (clear cells) were judged to be undifferentiated while those containing greater than 3 blue-black formazan granules were scored as differentiated. […] Results are expressed as the percentage of differentiated cells present in any sample as calculated according to the formula: [formula]

[3] = test system: HL-60 cells; assay: Differentiation of HL-60 cells by phagocytosis; format: cell-based, human (patient)
Description: as §1
(§4) Tissure culture medium used in these experiments was RPM1-1640 supplemented prior to use to 10% v/v with fetal bovine serum (heat inactivated at 56° for 30 minutes), to 130 units per ml with penicillin and 130 μg per ml with streptomycin, and to an additional 1.6 millimolar with L-glutamine.
as §2, §3
Quantitation of differentiated HL-60 cells on a functional basis was done by enumerating the number of cells in any sample which had acquired the ability to phagocytose (bind/internalize) particulate material from their environment, a characteristic of mature macrophages and granulocytes. Sufficient cells were pooled from replicate cultures, centrifuged at 200×g, washed once with serum-free tissue culture medium, and resuspended to 1×10^6 cells per ml in serum-free tissue culture medium. To a 1.0 ml sample in 12×75 mm tubes was added 0.1 ml of a 1:10 dilution from stock of fluorescent microspheres obtained as a gift from Dr. William Dreyer at the California Institute of Technology. Latex beads, yeast cells or red blood cells may also be used in place of fluorescent microsphere in this step. Cells and particle were mixed, incubated for 15 minutes in a 37° water bath, collected in a transfer pipet, and overlayed onto a 5 ml cushion of fetal bovine serum in a 15 ml conical culture tube. After centrifugation at 150×g for 8 minutes, the excess particulate (upper layer) was discarded as was the remainder of the serum cushion leaving only a cell pellet and cell-associated particulate. The resultant pellets were resuspended in 1.0 ml of tissue culture medium containing 10% fetal bovine serum, transferred to a hemacytometer, and evaluated microscopically using both ultraviolet and visible light sources. Undifferentiated and differentiated cells present in any sample were determined microscopically by surveying 200-400 cells per sample. Non-fluorescent cells, identified only by visible light, were judged to be undifferentiated. Generally, differentiated cells were intensely fluorescent clearly indicating extensive phagocytosis of particulate material. Results are expressed as the percentage of differentiated cells present in any sample as calculated according to the formula: [formula]

[4] = test system: HL-60 cells; assay: Anti-proliferative effect on HL-60 cells (Coulter Counter enumeration); format: cell-based, human (patient); details: for inhibition at 0.015 µM / inhibition at 0.045 µM / inhibition at 0.09 µM: Homo sapiens, read-out: percent reduction of cell numbers relative to control
Description: Cultures of HL-60 cells were established in the absence (control) or presence of various concentrations of the test compound. After a 4-day incubation period, the cultures were evaluated for proliferation of tumor cells, tumor cell viability, and cellular differentiation. Proliferation was assessed by directly enumerating the increased number of tumor cells resulting from incubation. Viability was determined by dye exclusion technique to learn whether any of the compounds were lethal to cultured HL-60 cells. Cellular differentiation was evaluated by determining the number of cells which had acquired the enzymes necessary to support a respiratory burst and the functional ability to phagocytose (bind/internalize) particulate material from their environment; both activities being characteristic of mature macrophages and granulocytes,
as §4, §2, §3
Quantitation of proliferation was done by enumerating the number of HL-60 cells in each individual flasks (3 flasks per experimental point) using a model ZBI Coulter Counter. Results are shown as the number of cells per ml of tissue culture medium expressed as the mean±standard deviation and as percent reduction of cell number calculated according to the formula: [formula] Experimental cultures with the same or slightly greater cell numbers than control cultures are reported as zero percent reduction.

## C=C(C)[C@H](O)CC[C@@H](C)[C@H]1CC[C@H]2/C(=C/C=C3/C[C@@H](O)C[C@H](O)C3=C)CCC[C@]12C [25,26-dehydro-1α,24R-dihydroxycholecalciferol]
[1]; 300 ng, orally, 21 consecutive days
  Antirachitogenic Increase in Tibia Ash in Chicks: 20%
[1]; than for 1α,25-dihydroxycholecalciferol, as indicated by increase in tibia ash weight in chicks
  potential for hypercalcemia: much less
[2]; 5, 15, 45 or 90×10^-9 molar, all incubation times
  induction of cellular differentiation (NBT reduction): increasing proportions of differentiated cells at all incubation times
[2]; 5 × 10^-9 molar, day 3
  % diff. (NBT reduction): 5%
  diff. cells / total (NBT reduction): 2443/44545
[2]; 5 × 10^-9 molar, day 4
  % diff. (NBT reduction): 8%
  diff. cells / total (NBT reduction): 3401/42923
[2]; 5 × 10^-9 molar, day 6
  % diff. (NBT reduction): 7%
  diff. cells / total (NBT reduction): 3179/47638
[2]; 15 × 10^-9 molar, day 3
  % diff. (NBT reduction): 22%
  diff. cells / total (NBT reduction): 8971/40398
[2]; 15 × 10^-9 molar, day 4
  % diff. (NBT reduction): 23%
  diff. cells / total (NBT reduction): 9489/40666
[2]; 15 × 10^-9 molar, day 6
  % diff. (NBT reduction): 17%
  diff. cells / total (NBT reduction): 8167/47032
[2]; 45 × 10^-9 molar, day 3
  % diff. (NBT reduction): 49%
  diff. cells / total (NBT reduction): 14932/30509
[2]; 45 × 10^-9 molar, day 4
  % diff. (NBT reduction): 60%
  diff. cells / total (NBT reduction): 20003/33311
[2]; 45 × 10^-9 molar, day 6
  % diff. (NBT reduction): 63%
  diff. cells / total (NBT reduction): 22787/36263
[2]; 90 × 10^-9 molar, day 3
  % diff. (NBT reduction): 62%
  diff. cells / total (NBT reduction): 29458/47866
[2]; 90 × 10^-9 molar, day 4
  % diff. (NBT reduction): 73%
  diff. cells / total (NBT reduction): 30230/41142
[2]; 90 × 10^-9 molar, day 6
  % diff. (NBT reduction): 79%
  diff. cells / total (NBT reduction): 35708/45388
[2]; Homo sapiens, 96 h, HL-60 cells, NBT test, read-out: HL-60 Test Differentiation NBT Test ED50
  EC50: 30 nM
[2]; compared with 1α,25-dihydroxycholecalciferol
  induction of cellular differentiation: induced cellular differentiation in a dose dependent fashion
[2]; of that of 1α,25-dihydroxycholecalciferol
  potency relative to 1α,25-dihydroxycholecalciferol (cellular differentiation): 40%
[3]; 5 × 10^-9 molar, day 3
  % diff. (Phagocytosis): 7%
  diff. cells / total (Phagocytosis): 24/329
[3]; 5 × 10^-9 molar, day 4
  % diff. (Phagocytosis): 10%
  diff. cells / total (Phagocytosis): 22/223
[3]; 5 × 10^-9 molar, day 6
  % diff. (Phagocytosis): 16%
  diff. cells / total (Phagocytosis): 45/290
[3]; 15 × 10^-9 molar, day 3
  % diff. (Phagocytosis): 24%
  diff. cells / total (Phagocytosis): 76/324
[3]; 15 × 10^-9 molar, day 4
  % diff. (Phagocytosis): 29%
  diff. cells / total (Phagocytosis): 96/332
[3]; 15 × 10^-9 molar, day 6
  % diff. (Phagocytosis): 25%
  diff. cells / total (Phagocytosis): 83/333
[3]; 45 × 10^-9 molar, day 3
  % diff. (Phagocytosis): 53%
  diff. cells / total (Phagocytosis): 174/329
[3]; 45 × 10^-9 molar, day 4
  % diff. (Phagocytosis): 70%
  diff. cells / total (Phagocytosis): 206/296
[3]; 45 × 10^-9 molar, day 6
  % diff. (Phagocytosis): 79%
  diff. cells / total (Phagocytosis): 176/223
[3]; 90 × 10^-9 molar, day 3
  % diff. (Phagocytosis): 69%
  diff. cells / total (Phagocytosis): 181/261
[3]; 90 × 10^-9 molar, day 4
  % diff. (Phagocytosis): 86%
  diff. cells / total (Phagocytosis): 219/255
[3]; 90 × 10^-9 molar, day 6
  % diff. (Phagocytosis): 96%
  diff. cells / total (Phagocytosis): 200/218
[3]; compared with control cultures
  cells capable of phagocytosis: dose-related increase in the proportion of cells capable of phagocytosis
[4]
  inhibition of proliferation of HL-60 cells: inhibited by 25,26-dehydro-1α,24R-dihydroxycholecalciferol in a dose-dependent fashion
[4]; 15 × 10^-9 molar (first line of that concentration), day 3
  HL-60 Cells per ml: 12.0 ± 0.2 cells per ml (× 10^-4)
[4]; 15 × 10^-9 molar (first line of that concentration), day 4
  HL-60 Cells per ml: 24.1 ± 1.0 cells per ml (× 10^-4)
[4]; 15 × 10^-9 molar (first line of that concentration), day 6
  HL-60 Cells per ml: 113.0 ± 1.4 cells per ml (× 10^-4)
[4]; 15 × 10^-9 molar (second line), day 3
  HL-60 Cells per ml: 12.0 ± 0.5 cells per ml (× 10^-4)
[4]; 15 × 10^-9 molar (second line), day 4
  HL-60 Cells per ml: 22.0 ± 0.4 cells per ml (× 10^-4)
[4]; 15 × 10^-9 molar (second line), day 6
  HL-60 Cells per ml: 71.4 ± 1.3 cells per ml (× 10^-4)
[4]; 45 × 10^-9 molar, day 3
  HL-60 Cells per ml: 12.3 ± 0.2 cells per ml (× 10^-4)
[4]; 45 × 10^-9 molar, day 4
  HL-60 Cells per ml: 19.0 ± 0.8 cells per ml (× 10^-4)
[4]; 45 × 10^-9 molar, day 6
  HL-60 Cells per ml: 31.4 ± 0.5 cells per ml (× 10^-4)
[4]; 90 × 10^-9 molar, day 3
  HL-60 Cells per ml: 11.8 ± 0.1 cells per ml (× 10^-4)
[4]; 90 × 10^-9 molar, day 4
  HL-60 Cells per ml: 15.4 ± 0.9 cells per ml (× 10^-4)
[4]; 90 × 10^-9 molar, day 6
  HL-60 Cells per ml: 21.4 ± 1.1 cells per ml (× 10^-4)
[4]; HL-60, 72 h, 15 × 10^-9 molar (first line of that concentration), day 3
  inhibition at 0.015 µM: 0%
[4]; HL-60, 72 h, 15 × 10^-9 molar (second line), day 3
  inhibition at 0.015 µM: 0%
[4]; HL-60, 72 h, 45 × 10^-9 molar, day 3
  inhibition at 0.045 µM: 0%
[4]; HL-60, 72 h, 90 × 10^-9 molar, day 3
  inhibition at 0.09 µM: 0%
[4]; HL-60, 96 h, 15 × 10^-9 molar (first line of that concentration), day 4
  inhibition at 0.015 µM: 9%
[4]; HL-60, 96 h, 15 × 10^-9 molar (second line), day 4
  inhibition at 0.015 µM: 17%
[4]; HL-60, 96 h, 45 × 10^-9 molar, day 4
  inhibition at 0.045 µM: 28%
[4]; HL-60, 96 h, 90 × 10^-9 molar, day 4
  inhibition at 0.09 µM: 42%
[4]; HL-60, 144 h, 15 × 10^-9 molar (first line of that concentration), day 6
  inhibition at 0.015 µM: 11%
[4]; HL-60, 144 h, 15 × 10^-9 molar (second line), day 6
  inhibition at 0.015 µM: 44%
[4]; HL-60, 144 h, 45 × 10^-9 molar, day 6
  inhibition at 0.045 µM: 75%
[4]; HL-60, 144 h, 90 × 10^-9 molar, day 6
  inhibition at 0.09 µM: 83%
[4]; day of incubation
  inhibition of proliferation detectable by cell enumeration as early as: 4 days
